# According to patent US6949558B2, “Enhancement of taxane-based chemotherapy by a CDK1 antagonist” (Yale University, priority 2001, dated 2005):
# Experiments:
# [1] = system: p34^cdc2 kinase activity (MPM-2 epitope) in HeLa cells; assay: MPM-2 mitotic phosphoepitope expression (p34^cdc2 kinase activity) in HeLa cells; assay type: cell-based, human; conditions: HeLa
# [2] = system: Bcl-2 expression in HeLa cells; assay: Bcl-2 expression by Western blotting in HeLa cells; assay type: cell-based, human; conditions: flavopiridol, 48 h
# Description: A. Concentration-dependence. […] B. Time-course. […] C. […] The experimental conditions are the same as in A, except that flavopiridol-treated HeLa cells were analyzed by Western blotting with an antibody to Bcl-2. D. Effect of genistein or TNF a on survivin expression. HeLa cells were treated with the tyrosine kinase inhibitor genistein (25 μM) or TNF a (5 ng/ml) for 48 h, harvested and analyzed for survivin expression by Western blotting. For all panels, relative molecular weight markers in kDa are shown on the left. E. Flavopiridol-induced apoptosis. […] The percentage of apoptotic cells with sub-G1DNA content is indicated. Insert, nuclear morphology of apoptosis (DNA fragmentation, chromatin condensation) in untreated or flavopiridol-treated HeLa cells, by DAPI staining.
# (§1) In some experiments, total RNA was extracted from MCF-7 cells at various time intervals after adriamycin treatment, and hybridized with 32 P-labeled survivin cDNA as described previously. Radioactive bands were detected by autoradiography. […] In other experiments, samples were transferred to nylon membranes and analyzed by Western blotting with antibodies to p34^cdc2 (1 μg/ml), survivin (2 μg/ml), or survivinT34* (5 μg/ml).
# MCF-7 xenografts = assay type: in vivo; conditions: adriamycin 2 mg/kg or flavopiridol 15 mg/kg alone, i.p.
# Description: Each complete cycle was separated by 2 d without treatment.
# This test generates a P value testing the null hypothesis that the survival curves are identical in the overall populations.
# [3] = system: survivin phosphorylation on Thr^34 in MCF-7 cells; assay: Survivin phosphorylation on Thr^34 in MCF-7 cells; assay type: cell-based, human; conditions: flavopiridol in the presence of 100 nM adriamycin
# Description: as §1
# [4] = system: survivin phosphorylation on Thr^34 in HeLa cells; assay: Survivin phosphorylation on Thr^34 in HeLa cells (immunoprecipitation, Western blotting); assay type: cell-based, human; conditions: increasing concentrations of flavopiridol, 24 h
# Description: (§2) A. In vitro kinase assay. […] Radioactive bands were detected by autoradiography. […] The immune complexesb were analyzed by Western blotting (WB) with an antibody to Thr^34-phosphorylated survivin (a-survivinT34*, top panel) or with an antibody to survivin (a-survivin, lower panel) followed by chemiluminescence. For all panels, relative molecular weight markers in kDa are shown on the left.
# as §1
# Luciferase values were normalized to β-galactosidase expression.
# [5] = system: survivin expression in MCF-7 cells; assay: Survivin expression by Western blotting in MCF-7 cells; assay type: cell-based, human
# Description: (§3) Cell Cultures, Proteins and Antibodies: Breast carcinoma MCF-7 and cervical carcinoma HeLa cells (American Type Culture Collection, Manassas, Va.) were maintained in culture according to the manufacturer's specifications. For treatment with genotoxic agents, HeLa or MCF-7 cells were incubated with vehicle (DMSO) or taxol (2 μM, Sigma Chemical Co., St. Louis, Mo.), adriamycin (100 nM, Sigma), cis-platin (3 μM, Sigma) or subjected to ultraviolet B (UVB) irradiation at 50 or 300 J/m^2. In some experiments, HeLa or MCF-7 treated with taxol, adriamycin or UVB as described above were incubated with inhibitors of transcription (actinomycin D, 1 μg/ml) or translation (cycloheximide, 2 mg/ml) before determination of protein expression by Western blotting. […] A replication-deficient adenovirus encoding wild type survivin (pAd-Survivin) or control encoding Green Fluorescence Protein (pAd-GFP) was generated using the pAd-Easy system as described previously (M. Mesri et al. (2001) J. Clin. Invest. 108: 981-90), and propagated in HEK293 cells with purification by CsCl banding. […] Antibodies to p34^cdc2 or bcl-2 were obtained from Pharmingen (San Diego, Calif.) and R&D, respectively. An antibody to β-actin was from Sigma and antibodies to MPM-2 mitotic phosphoproteins was from Upstate Biotechnology (Lake Placid, N.Y.).
# as §1
# p34^cdc2 = target: T1, p34^cdc2 (Homo sapiens, UniProt P06493); assay: H1 phosphorylation by p34^cdc2 immunoprecipitated from treated HeLa cells; assay type: cell-based; conditions: increasing concentrations of flavopiridol, 24 h
# T1 construct: endogenous in cells; host or cells: HeLa cervical carcinoma cells (ATCC)
# Description: as §2, §1
# [6] = system: survivin expression in HeLa cells; assay: Survivin expression by Western blotting in HeLa cells; assay type: cell-based, human
# Description: as §3, §1
# In other experiments, HeLa cells were treated with taxol (0.2 μM) for 16 h followed by the DNA damaging agent adriamycin (100 nM, Sigma) or the nucleoside analog 5-Fluorouracil (500 μM, Sigma) for 8-32 h at 37° C. […] In some experiments, HeLa cells were transfected by lipofectamine with a minimal survivin promoter construct upstream of a luciferase reporter gene (pLuc-cyc1.2), as described (F. Li et al. (1998) Nature 396: 580-584). Cells were treated with taxol (2 μM) or UVB (50 J/m2), and analyzed for changes in luciferase activity at increasing time intervals (12-36 h) in a luminometer. Luciferase values were normalized to β-galactosidase expression. […] The immune complexes were separated by SDS gel electrophoresis and analyzed with antibodies to survivin or a-survivinT34* by Western blotting.
# p34^cdc2-cyclin B1 = p34^cdc2-cyclin B1 (Homo sapiens, UniProt P06493); assay: In vitro kinase assay with baculovirus-expressed p34^cdc2-cyclin B1; assay type: biochemical; conditions: 100 nM flavopiridol
# Description: as §2, §1
# HeLa cells = assay: Apoptosis by DNA content analysis and flow cytometry in HeLa cells; assay type: cell-based, human; conditions: increasing flavopiridol concentrations, 48 h
# T1 sequence (P06493 whole entry): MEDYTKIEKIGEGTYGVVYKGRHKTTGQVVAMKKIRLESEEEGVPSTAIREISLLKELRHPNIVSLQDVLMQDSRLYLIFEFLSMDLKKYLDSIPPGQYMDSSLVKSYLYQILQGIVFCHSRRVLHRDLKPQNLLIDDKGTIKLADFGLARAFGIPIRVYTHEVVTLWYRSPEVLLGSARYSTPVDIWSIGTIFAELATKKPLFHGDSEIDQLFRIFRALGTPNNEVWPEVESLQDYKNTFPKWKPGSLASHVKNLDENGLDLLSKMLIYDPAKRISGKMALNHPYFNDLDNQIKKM
# T1 sequence (P14635 whole entry partner): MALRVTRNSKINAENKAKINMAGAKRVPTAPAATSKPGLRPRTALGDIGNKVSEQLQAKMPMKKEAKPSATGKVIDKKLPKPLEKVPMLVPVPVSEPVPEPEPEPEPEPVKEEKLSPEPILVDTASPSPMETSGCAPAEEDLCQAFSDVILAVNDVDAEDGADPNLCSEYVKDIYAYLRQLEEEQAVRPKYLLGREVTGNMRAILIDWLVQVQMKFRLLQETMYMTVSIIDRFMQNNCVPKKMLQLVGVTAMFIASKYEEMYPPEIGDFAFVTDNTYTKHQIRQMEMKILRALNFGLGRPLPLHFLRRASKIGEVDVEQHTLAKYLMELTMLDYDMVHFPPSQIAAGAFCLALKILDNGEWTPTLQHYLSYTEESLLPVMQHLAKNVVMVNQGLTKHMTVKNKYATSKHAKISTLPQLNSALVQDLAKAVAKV
# Chain of p34^cdc2-cyclin B1 (P06493 whole entry): as the sequence (P06493 whole entry) above
# Chain of p34^cdc2-cyclin B1 (P14635 whole entry partner): as the sequence (P14635 whole entry partner) above
smiles,measurement,setting,value
CN1CC[C@H](c2c(O)cc(O)c3c(=O)cc(-c4ccccc4Cl)oc23)[C@H](O)C1 [flavopiridol],MPM-2 mitotic phosphoepitope expression,"[1]; taxol 0.2 μM 16 h then Cdk inhibitor for 16 h (Purvalanol A 10 μM, alsterpaullone 20 μM, flavopiridol 250 nM, olomoucine 400 μM)",partially inhibited MPM-2 expression
same,MPM-2 mitotic phosphoepitope expression,[1]; taxol 0.2 μM 16 h then Cdk inhibitor for 32 h,suppressed mitotic phosphoprotein expression
same,Bcl-2 expression,[2],did not affect expression of antiapoptotic Bcl-2
same,kinetics of tumor growth vs vehicle,MCF-7 xenografts,did not affect the kinetics of tumor growth
same,survivin phosphorylation on Thr^34,[3],suppressed survivin phosphorylation on Thr^34
same,survivin phosphorylation on Thr^34,[4],concentration-dependent inhibition of phosphorylation on Thr^34
same,survivin levels,"[5]; anti-cancer agents (adriamycin, UVB) 18 h followed by flavopiridol 72 h",suppressed survivin levels to background values of untreated cultures
same,survivin levels,[5]; flavopiridol alone 100 nM for 72 h,did not significantly affect survivin levels
same,H1 phosphorylation by immunoprecipitated p34^cdc2,p34^cdc2,dose-dependent inhibition of H1 phosphorylation
same,survivin expression,[6]; 1 and 25 nM flavopiridol and between 12 and 72 hours,modest increase in survivin expression
same,survivin expression,"[6]; flavopiridol 100 nM, 84-96 h treatment",Nearly complete loss of survivin expression
same,survivin expression,"[6]; higher flavopiridol concentrations, 24 h",complete loss of survivin expression
same,"survivin expression, concentration dependence","[6]; increasing flavopiridol concentrations, 48 h",concentration-dependent decrease in survivin expression
same,phosphorylation of H1 and wild type survivin by p34^cdc2-cyclin B1,p34^cdc2-cyclin B1,suppressed phosphorylation of H1 and wild type survivin
same,population with hypodiploid (apoptotic) DNA content,HeLa cells,concentration-dependent increase in the population with hypodiploid (apoptotic) DNA content
